From ChEMBL document CHEMBL1133437, “Parallel synthesis of a library of 1,4-naphthoquinones and automated screening of potential inhibitors of trypanothione reductase from Trypanosoma cruzi” (Bioorg Med Chem Lett, 2000)

How the values were obtained:
[1] = Concentration required for inhibition of human homologous Disulphide oxidoreductase (hGR) in the presence of GSSG as substrate
[2] = target: Trypanothione reductase (Trypanosoma cruzi, UniProt P28593); test: Concentration required for inhibition of Trypanothione reductase (TcTR) from Trypanosoma cruzi in the presence of 50 uM TS2 as substrate
Sequence of Trypanothione reductase (P28593 whole entry): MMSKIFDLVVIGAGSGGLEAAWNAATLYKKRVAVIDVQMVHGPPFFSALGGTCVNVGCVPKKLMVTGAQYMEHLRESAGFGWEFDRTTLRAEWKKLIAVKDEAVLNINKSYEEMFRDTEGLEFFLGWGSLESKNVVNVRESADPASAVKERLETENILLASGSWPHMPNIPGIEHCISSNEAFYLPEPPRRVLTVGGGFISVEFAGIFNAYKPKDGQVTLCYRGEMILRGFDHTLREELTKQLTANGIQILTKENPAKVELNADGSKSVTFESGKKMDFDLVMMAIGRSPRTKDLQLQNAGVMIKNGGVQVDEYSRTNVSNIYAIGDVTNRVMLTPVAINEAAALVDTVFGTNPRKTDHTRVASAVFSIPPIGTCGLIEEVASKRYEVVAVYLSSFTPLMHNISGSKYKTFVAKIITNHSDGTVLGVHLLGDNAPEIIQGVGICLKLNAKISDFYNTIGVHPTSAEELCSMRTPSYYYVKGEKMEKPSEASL

[3] = target: Trypanothione reductase (Trypanosoma cruzi) (UniProt P28593); test: Percentage inhibition of Trypanothione reductase at 25 uM in the presence of 200 uM DTNBA as substrate
Sequence of Trypanothione reductase (Trypanosoma cruzi) (P28593 whole entry, looked up): as the sequence (P28593 whole entry) above

[4] = Concentration required for inhibition of human homologous Disulphide oxidoreductase (hGR)

Compound | IC50 [1] [µM] | IC50 [2] [µM] | inhibition [3] [%] | IC50 [4] [µM]
CCCCN(CCCC)CCCNC(=O)CCCCC1=C(CCCCC(=O)NCCCN(CCCC)CCCC)C(=O)c2c(O)cccc2C1=O | > 50 | 0.6 | 81 | –
CCCCN(CCCC)CCCNC(=O)CCCCC1=C(C)C(=O)c2cccc(O)c2C1=O | 41 | 0.3 | 88 | –
CCCCN(CCCC)CCCNC(=O)CCCCC1=C(C)C(=O)c2ccccc2C1=O | > 50 | 1.1 | 86 | –
CC1=CC(=O)c2ccccc2C1=O [MENADIONE] | – | 55 | – | 63
CC1=CC(=O)c2c(O)cccc2C1=O [PLUMBAGIN] | – | 28 | – | 38
CC1=C(CCCCC(=O)NCCCNCCCNC(=O)CCCCC2=C(C)C(=O)c3cccc(O)c3C2=O)C(=O)c2c(O)cccc2C1=O | 10 | 0.5 | 79 | –
